The source of these data is US20150133369A1, “PHARMACOKINETIC MODULATION WITH ALISPORIVIR” (priority 2012, published 2015).

One data set addresses CYP3A4 (Homo sapiens, UniProt P08684).
The target of the next data set is T1, UGT2B7 (Homo sapiens, UniProt P16662).
T1 sequence (P16662 24-529): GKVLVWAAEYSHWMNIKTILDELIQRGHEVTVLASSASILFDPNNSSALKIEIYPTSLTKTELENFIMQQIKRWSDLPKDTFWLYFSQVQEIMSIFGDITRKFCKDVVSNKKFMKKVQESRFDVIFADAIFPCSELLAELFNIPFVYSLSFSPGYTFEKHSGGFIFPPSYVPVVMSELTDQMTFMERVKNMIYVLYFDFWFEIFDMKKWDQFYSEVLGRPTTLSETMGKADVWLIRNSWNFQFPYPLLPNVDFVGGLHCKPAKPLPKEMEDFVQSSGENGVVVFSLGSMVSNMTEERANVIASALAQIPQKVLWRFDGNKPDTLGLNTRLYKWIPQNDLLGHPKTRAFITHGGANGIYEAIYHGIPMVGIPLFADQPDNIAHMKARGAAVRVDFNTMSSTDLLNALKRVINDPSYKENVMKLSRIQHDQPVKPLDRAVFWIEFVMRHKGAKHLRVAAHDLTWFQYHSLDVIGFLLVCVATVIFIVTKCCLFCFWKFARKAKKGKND

Data set [1] concerns the target T2, MRP2 (Homo sapiens, UniProt Q92887). The settings on record: not told.
Description: (§1) The effect of Alisporivir on the OATP1B1, 1B3, and MRP2 substrate valsartan was also investigated.
The target in data set [2] is T3, OATP1B3 (Homo sapiens, UniProt Q9NPD5).
T3 sequence (Q9NPD5 1-702): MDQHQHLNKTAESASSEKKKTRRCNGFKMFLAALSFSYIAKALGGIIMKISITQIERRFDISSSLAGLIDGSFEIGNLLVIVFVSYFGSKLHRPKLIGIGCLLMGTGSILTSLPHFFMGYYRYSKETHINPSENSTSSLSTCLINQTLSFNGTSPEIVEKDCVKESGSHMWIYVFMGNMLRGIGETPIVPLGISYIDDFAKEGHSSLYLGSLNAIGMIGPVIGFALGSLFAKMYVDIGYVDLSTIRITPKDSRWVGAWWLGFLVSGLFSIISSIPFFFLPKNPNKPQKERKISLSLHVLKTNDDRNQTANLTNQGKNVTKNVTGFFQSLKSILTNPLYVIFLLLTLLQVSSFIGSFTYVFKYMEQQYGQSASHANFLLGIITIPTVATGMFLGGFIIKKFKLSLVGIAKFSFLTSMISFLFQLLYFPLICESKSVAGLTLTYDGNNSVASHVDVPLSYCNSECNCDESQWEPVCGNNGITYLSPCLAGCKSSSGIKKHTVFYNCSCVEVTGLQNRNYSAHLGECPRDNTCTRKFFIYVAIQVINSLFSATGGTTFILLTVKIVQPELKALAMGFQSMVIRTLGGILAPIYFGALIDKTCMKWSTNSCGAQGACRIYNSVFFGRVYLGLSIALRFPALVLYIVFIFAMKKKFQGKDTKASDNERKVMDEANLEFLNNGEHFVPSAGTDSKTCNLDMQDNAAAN
Description: as §1

Data set [3] deals with T4, OATP1B1 (Homo sapiens, UniProt Q9Y6L6).
T4 sequence (Q9Y6L6 1-691): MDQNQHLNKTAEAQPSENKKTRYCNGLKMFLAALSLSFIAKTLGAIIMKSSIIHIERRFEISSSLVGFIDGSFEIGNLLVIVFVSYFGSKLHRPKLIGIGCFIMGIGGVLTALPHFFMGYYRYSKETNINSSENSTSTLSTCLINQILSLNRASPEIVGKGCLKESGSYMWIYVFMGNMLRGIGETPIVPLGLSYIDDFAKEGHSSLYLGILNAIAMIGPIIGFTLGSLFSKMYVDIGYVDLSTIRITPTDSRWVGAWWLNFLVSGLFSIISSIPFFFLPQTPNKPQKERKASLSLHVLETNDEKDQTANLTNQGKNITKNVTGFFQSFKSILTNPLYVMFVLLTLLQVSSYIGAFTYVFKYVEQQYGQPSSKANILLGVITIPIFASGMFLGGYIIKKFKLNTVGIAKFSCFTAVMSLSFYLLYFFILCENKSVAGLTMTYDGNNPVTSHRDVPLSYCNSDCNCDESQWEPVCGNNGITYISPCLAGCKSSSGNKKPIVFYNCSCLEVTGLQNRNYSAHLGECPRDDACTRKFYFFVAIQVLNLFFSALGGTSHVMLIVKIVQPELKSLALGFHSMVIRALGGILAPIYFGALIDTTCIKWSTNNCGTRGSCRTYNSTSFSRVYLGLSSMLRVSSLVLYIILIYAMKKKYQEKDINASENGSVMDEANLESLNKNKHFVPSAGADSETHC
Description: as §1

For data set [4] the following is noted: human, in vivo, po.
A further data set concerns the target BSEP (Homo sapiens, UniProt O95342).
In data set [5] the target is T4, OATP1B1. The source holds these as a separate data set.
Description: as §1
Data set [6] addresses T2, MRP2.
Description: as §1
The conditions of data set [7]: human, in vivo, po. The source holds these as a separate data set.
Another data set concerns HIV-1. The settings on record: in vitro; more potent than CsA; cited from earlier work.
In another data set the target is P-gp (Homo sapiens, UniProt P08183). The settings on record: not told.
Another data set concerns the target T5, NTCP (Homo sapiens, UniProt Q14973).
T5 sequence (Q14973 1-349): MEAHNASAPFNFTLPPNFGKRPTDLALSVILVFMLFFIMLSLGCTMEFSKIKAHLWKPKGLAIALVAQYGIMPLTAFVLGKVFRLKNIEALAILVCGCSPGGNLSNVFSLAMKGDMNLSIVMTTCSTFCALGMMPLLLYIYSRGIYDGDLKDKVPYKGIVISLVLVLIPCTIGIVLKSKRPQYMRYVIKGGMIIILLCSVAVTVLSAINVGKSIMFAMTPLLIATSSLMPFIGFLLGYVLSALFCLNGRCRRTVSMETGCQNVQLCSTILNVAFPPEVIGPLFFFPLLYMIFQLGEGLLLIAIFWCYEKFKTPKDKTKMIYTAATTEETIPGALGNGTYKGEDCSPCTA

Another data set concerns the target T6, UGT1A1 (Homo sapiens, UniProt P22309).
T6 sequence (P22309 26-533): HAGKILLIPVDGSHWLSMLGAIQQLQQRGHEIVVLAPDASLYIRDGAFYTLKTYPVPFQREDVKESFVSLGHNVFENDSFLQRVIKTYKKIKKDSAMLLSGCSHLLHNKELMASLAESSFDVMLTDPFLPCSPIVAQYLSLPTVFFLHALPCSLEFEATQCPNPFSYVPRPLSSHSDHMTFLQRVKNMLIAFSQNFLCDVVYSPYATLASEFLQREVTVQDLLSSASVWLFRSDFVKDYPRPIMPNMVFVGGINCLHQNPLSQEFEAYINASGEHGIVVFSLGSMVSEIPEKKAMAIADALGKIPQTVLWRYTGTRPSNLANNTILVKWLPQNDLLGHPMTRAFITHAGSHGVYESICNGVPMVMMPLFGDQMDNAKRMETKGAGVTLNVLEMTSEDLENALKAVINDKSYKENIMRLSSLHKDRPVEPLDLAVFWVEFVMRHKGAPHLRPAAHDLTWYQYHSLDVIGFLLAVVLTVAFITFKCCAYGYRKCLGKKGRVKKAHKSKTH

For data set [8], the target named is T3, OATP1B3. The source holds these as a separate data set.
Description: as §1

T2 sequence (Q92887 whole entry): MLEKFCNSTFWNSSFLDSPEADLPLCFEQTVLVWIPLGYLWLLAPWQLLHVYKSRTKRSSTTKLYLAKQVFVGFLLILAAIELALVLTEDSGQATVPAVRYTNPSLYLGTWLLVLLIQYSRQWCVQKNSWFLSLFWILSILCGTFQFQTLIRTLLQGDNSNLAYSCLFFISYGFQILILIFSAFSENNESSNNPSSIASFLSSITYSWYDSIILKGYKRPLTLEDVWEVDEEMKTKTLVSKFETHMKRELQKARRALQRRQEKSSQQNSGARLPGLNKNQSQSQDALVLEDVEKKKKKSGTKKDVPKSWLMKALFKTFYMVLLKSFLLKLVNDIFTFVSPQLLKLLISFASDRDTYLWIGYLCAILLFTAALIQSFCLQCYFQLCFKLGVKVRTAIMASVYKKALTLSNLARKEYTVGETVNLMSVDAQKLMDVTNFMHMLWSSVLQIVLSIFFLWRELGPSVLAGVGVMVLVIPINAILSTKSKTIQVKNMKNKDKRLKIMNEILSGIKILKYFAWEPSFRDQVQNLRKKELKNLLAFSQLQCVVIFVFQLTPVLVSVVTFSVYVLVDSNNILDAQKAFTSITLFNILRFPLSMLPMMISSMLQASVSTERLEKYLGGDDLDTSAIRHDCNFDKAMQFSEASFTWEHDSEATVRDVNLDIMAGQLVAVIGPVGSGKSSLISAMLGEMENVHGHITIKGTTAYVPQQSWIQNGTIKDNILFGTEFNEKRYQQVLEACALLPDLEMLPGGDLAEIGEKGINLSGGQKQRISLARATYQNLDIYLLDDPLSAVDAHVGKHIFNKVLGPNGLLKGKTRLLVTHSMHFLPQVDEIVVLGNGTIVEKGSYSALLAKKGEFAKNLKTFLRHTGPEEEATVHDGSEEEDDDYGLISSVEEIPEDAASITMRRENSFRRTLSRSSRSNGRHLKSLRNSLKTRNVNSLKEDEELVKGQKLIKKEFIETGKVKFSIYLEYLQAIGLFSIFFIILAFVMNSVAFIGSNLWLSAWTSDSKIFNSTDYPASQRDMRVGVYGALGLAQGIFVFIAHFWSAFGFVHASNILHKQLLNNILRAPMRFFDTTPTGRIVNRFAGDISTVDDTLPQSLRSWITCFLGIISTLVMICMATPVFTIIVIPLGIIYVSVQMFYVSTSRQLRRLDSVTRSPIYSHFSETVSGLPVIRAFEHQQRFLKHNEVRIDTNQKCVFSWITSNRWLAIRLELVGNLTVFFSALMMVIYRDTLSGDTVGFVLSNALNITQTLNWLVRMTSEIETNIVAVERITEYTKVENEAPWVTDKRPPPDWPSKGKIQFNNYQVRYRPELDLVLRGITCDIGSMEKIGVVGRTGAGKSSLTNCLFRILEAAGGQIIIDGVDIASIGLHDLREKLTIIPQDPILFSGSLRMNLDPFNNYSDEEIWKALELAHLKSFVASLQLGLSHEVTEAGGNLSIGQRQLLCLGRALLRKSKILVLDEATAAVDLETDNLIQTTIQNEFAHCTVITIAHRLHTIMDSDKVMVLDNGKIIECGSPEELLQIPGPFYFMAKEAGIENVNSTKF
CYP3A4, sequence (P08684 whole entry): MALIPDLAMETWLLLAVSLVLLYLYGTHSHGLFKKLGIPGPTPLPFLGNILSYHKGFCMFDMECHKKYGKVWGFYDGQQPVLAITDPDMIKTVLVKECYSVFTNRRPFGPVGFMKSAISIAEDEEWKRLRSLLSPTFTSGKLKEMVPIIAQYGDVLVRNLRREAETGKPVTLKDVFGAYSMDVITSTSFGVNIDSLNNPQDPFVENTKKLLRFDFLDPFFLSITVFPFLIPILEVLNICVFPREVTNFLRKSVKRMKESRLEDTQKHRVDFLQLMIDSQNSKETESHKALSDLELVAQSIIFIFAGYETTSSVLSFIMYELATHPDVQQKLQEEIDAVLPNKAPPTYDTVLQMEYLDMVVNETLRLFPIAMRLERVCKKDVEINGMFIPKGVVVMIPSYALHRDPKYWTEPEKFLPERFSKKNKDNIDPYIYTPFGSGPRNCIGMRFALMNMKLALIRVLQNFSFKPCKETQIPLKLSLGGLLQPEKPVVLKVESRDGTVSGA
P-gp, sequence (P08183 whole entry): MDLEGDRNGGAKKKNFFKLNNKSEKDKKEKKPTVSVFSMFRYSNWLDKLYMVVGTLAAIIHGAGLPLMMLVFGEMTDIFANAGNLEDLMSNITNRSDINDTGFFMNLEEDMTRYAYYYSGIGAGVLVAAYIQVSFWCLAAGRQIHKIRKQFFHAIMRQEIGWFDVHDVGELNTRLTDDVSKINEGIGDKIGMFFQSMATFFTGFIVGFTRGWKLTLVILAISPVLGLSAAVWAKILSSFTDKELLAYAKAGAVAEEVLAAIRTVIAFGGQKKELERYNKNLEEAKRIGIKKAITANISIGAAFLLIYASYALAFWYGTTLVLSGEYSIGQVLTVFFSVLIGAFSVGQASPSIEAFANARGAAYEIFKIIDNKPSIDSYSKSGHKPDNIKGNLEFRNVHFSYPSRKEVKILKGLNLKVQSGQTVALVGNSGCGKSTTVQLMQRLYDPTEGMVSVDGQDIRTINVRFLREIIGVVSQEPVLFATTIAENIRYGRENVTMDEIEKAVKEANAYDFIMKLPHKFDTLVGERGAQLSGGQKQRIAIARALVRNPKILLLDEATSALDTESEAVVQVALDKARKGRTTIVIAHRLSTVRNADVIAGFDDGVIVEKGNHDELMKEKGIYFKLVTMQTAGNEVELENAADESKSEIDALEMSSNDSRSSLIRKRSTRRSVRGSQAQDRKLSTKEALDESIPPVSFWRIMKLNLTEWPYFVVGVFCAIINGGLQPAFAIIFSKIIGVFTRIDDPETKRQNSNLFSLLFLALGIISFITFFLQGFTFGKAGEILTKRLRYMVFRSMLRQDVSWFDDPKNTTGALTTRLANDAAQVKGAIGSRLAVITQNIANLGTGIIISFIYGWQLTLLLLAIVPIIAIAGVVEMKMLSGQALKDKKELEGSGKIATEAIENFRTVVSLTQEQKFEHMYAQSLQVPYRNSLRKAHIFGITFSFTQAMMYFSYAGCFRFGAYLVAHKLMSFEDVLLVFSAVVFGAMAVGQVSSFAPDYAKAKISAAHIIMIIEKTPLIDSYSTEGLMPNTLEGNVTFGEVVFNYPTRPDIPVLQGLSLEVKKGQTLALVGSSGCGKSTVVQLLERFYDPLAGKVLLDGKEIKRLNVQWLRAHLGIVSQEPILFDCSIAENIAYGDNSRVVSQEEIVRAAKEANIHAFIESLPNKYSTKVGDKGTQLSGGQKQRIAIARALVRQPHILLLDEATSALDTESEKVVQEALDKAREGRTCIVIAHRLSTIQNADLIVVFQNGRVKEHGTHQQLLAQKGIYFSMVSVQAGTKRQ
BSEP, sequence (O95342 whole entry): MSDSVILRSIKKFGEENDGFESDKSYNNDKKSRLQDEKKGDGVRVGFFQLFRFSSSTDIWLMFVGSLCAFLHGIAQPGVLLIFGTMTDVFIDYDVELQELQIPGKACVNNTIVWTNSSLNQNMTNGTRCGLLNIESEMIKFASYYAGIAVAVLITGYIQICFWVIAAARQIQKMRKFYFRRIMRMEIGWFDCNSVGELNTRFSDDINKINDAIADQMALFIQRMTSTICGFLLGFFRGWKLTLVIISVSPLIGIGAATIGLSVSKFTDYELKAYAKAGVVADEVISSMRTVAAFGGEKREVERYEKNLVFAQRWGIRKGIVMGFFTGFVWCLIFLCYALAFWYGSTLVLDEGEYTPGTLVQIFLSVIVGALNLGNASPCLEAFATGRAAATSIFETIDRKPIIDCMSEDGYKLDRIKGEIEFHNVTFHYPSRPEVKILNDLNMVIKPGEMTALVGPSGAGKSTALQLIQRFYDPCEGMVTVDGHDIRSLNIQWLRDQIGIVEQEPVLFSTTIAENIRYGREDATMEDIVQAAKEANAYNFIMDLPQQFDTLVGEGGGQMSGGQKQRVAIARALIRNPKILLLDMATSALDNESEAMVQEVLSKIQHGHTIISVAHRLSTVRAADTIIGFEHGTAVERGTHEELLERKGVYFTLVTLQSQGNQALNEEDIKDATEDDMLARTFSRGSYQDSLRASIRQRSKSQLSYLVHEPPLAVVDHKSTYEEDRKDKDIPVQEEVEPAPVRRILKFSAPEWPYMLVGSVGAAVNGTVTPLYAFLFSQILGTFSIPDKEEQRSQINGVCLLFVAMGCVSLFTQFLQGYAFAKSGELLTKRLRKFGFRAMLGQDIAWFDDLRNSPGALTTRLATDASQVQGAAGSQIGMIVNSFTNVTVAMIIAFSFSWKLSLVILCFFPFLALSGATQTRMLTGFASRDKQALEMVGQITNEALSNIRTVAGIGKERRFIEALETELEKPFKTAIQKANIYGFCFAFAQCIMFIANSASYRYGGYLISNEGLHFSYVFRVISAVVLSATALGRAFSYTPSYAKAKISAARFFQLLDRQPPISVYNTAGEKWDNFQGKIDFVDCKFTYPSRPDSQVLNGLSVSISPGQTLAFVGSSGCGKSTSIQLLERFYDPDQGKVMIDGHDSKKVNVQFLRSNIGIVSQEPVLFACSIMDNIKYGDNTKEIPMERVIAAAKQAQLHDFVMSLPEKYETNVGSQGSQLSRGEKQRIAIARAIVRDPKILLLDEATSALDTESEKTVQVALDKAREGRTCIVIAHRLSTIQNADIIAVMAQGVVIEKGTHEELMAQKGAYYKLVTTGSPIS
Description for UGT1A1: as §1

Consider `C/C=C/C[C@@H](C)[C@@H](O)[C@H]1C(=O)N[C@@H](CC)C(=O)N(C)[C@H](C)C(=O)N(CC)[C@@H](C(C)C)C(=O)N[C@@H](C(C)C)C(=O)N(C)[C@@H](CC(C)C)C(=O)N[C@@H](C)C(=O)N[C@H](C)C(=O)N(C)[C@@H](CC(C)C)C(=O)N(C)[C@@H](CC(C)C)C(=O)N(C)[C@@H](C(C)C)C(=O)N1C` [alisporivir], for which the “inhibition of CYP3A4” value at CYP3A4 is “time-dependent inhibitor of CYP3A4”. Moreover, the “inhibition of UGT2B7” value on UGT2B7 is “does not inhibit”. Moreover, the “inhibition of MRP2” value at MRP2 [1] is “inhibitor”. Moreover, the IC50 against OATP1B3 [2] and against OATP1B1 [3] was 700 nM throughout. Also, in data set [4], the “T1/2 when administered with boceprevir” value is given as “shorter”. Moreover, the “inhibition of BSEP” value against BSEP was “inhibitor”. Further, on OATP1B1 [5], the “inhibition of OATP1B1” value is listed as “inhibitor”. Further, the Ki on MRP2 [6] came to 5900 nM. In addition, the “T1/2 when administered with telaprevir” value in [7] was “shorter”. Also, in the data set on HIV-1, the “anti-HIV-1 potency relative to CsA” value is on record as “approximately 10 fold”. Moreover, at P-gp, the “inhibition of P-gp” value is on record as “inhibitor”. For the same compound, the “inhibition of NTCP” value at NTCP is “inhibitor”. Further, on UGT1A1, the “inhibition of UGT1A1” value is “does not inhibit”. Further, the “inducing effects on CYP isozymes” value with CYP isozymes was “no inducing effects”. Further, the “inhibition of OATP1B3” value at OATP1B3 [8] is “inhibitor”.
